# Patent US12421212B2, “Substituted benzenecarboxamides as IL-17A modulators” (DiCE Alpha, Inc., priority 2019, dated 2025)
# Molecular target: T1, IL-17A/A (Homo sapiens, UniProt Q16552)
# T1 construct: purchased Genscript Z03228
# T1 sequence (Q16552 24-155): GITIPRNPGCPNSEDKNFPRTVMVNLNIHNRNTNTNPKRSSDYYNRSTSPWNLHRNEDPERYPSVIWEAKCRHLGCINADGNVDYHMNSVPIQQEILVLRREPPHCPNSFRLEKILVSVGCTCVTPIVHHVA
# Test: IL-17A/A HEK-Blue Cell Assay
# Assay type: cell-based
# Settings: HEK-Blue IL-17A reporter cell line, SEAP readout at A630, 20 hours incubation with IL-17A/A; top concentration 10 uM, 1 uM or 0.3 uM
row,Compound,IL-17A/A inhibition (pIC50)
1,CCC(=O)N[C@H](Cc1ccc(NC(=O)[C@H](Cc2ccc(Cl)cc2)NC(=O)c2ccnn2CC)c(F)c1)C(=O)N1CCN(C)CC1 [Compound 722],X2b (compounds were evaluated up to 1 uM and inhibited activity at 1 uM by less than 20%)
2,CCC(=O)N[C@H](Cc1ccc(NC(=O)[C@H](Cc2ccc(C(F)(F)F)cc2)NC(=O)c2ccnn2CC)c(F)c1)C(=O)N1CCN(C)CC1 [Compound 723],X2b (compounds were evaluated up to 1 uM and inhibited activity at 1 uM by less than 20%)
3,CCC(=O)N[C@H](Cc1ccc(NC(=O)[C@H](Cc2ccc3ccccc3c2)NC(=O)c2ccnn2CC)c(F)c1)C(=O)N1CCN(C)CC1 [Compound 724],X2b (compounds were evaluated up to 1 uM and inhibited activity at 1 uM by less than 20%)
4,CCC(=O)N[C@H](Cc1ccc(NC(=O)[C@H](Cc2ccccc2F)NC(=O)c2ccnn2CC)c(F)c1)C(=O)N1CCN(C)CC1 [Compound 725],X2b (compounds were evaluated up to 1 uM and inhibited activity at 1 uM by less than 20%)
5,CCC(=O)N[C@H](Cc1ccc(NC(=O)[C@H](Cc2cccc(Cl)c2)NC(=O)c2ccnn2CC)c(F)c1)C(=O)N1CCN(C)CC1 [Compound 726],X2b (compounds were evaluated up to 1 uM and inhibited activity at 1 uM by less than 20%)
6,CCC(=O)N[C@H](Cc1ccc(NC(=O)[C@H](Cc2cc(C)cc(C)c2)NC(=O)c2ccnn2CC)c(F)c1)C(=O)N1CCN(C)CC1 [Compound 727],X2b (compounds were evaluated up to 1 uM and inhibited activity at 1 uM by less than 20%)
7,CCC(=O)N[C@H](Cc1ccc(NC(=O)[C@@H](NC(=O)c2ccnn2CC)C2Cc3ccccc3C2)c(F)c1)C(=O)N1CCN(C)CC1 [Compound 728],"X2a (compounds were evaluated up to 1 uM and did not inhibit activity by >80%, however they showed some activity at 1 uM (less than 80% and more than 20%))"
8,CCC(=O)N[C@H](Cc1ccc(NC(=O)[C@H](CCC2CCCCC2)NC(=O)c2ccnn2CC)c(F)c1)C(=O)N1CCN(C)CC1 [Compound 729],X2b (compounds were evaluated up to 1 uM and inhibited activity at 1 uM by less than 20%)
9,CCC(=O)N[C@H](Cc1ccc(NC(=O)[C@H](CC2CCCCC2)NC(=O)c2ccnn2CC)c(F)c1)C(=O)N1CCN(C)CC1 [Compound 730],X2b (compounds were evaluated up to 1 uM and inhibited activity at 1 uM by less than 20%)
10,CCC(=O)N[C@H](Cc1ccc(NC(=O)[C@H](Cc2ccccc2Cl)NC(=O)C(F)(F)c2ccc(OC)nc2)c(F)c1)C(=O)N1CCN(C)CC1 [Compound 731],X2b (compounds were evaluated up to 1 uM and inhibited activity at 1 uM by less than 20%)
11,CCC(=O)N[C@H](Cc1ccc(NC(=O)[C@@H](NC(=O)c2ccnn2CC)[C@H]2CC[C@H](C(F)(F)F)CC2)c(F)c1)C(=O)N1CCN(C)CC1 [Compound 732],"X2a (compounds were evaluated up to 1 uM and did not inhibit activity by >80%, however they showed some activity at 1 uM (less than 80% and more than 20%))"
12,CCC(=O)N[C@@H](C(=O)N1CCN(C)CC1)[C@@H](C)c1ccc(NC(=O)[C@@H](NC(=O)C(F)(F)C2CCNCC2)C2CCCCC2)c(F)c1 [Compound 733],X2b (compounds were evaluated up to 1 uM and inhibited activity at 1 uM by less than 20%)
13,CCC(=O)N[C@@H](C(=O)N1CCN(C)CC1)[C@@H](C)c1ccc(NC(=O)[C@@H](NC(=O)C(F)(F)C2CCN(C)CC2)C2CCCCC2)c(F)c1 [Compound 734],"X2a (compounds were evaluated up to 1 uM and did not inhibit activity by >80%, however they showed some activity at 1 uM (less than 80% and more than 20%))"
14,CCC(=O)N[C@@H](C(=O)N1CCN(C)CC1)[C@@H](C)c1ccc(NC(=O)[C@@H](NC(=O)C(F)(F)C2CCN(CCO)CC2)C2CCCCC2)c(F)c1 [Compound 735],"X2a (compounds were evaluated up to 1 uM and did not inhibit activity by >80%, however they showed some activity at 1 uM (less than 80% and more than 20%))"
15,CCC(=O)N[C@@H](C(=O)N1CCN(C)CC1)[C@@H](C)c1ccc(NC(=O)[C@@H](NC(=O)c2ccnn2-c2ccccc2)C2CCCCC2)c(F)c1 [Compound 738],"X2a (compounds were evaluated up to 1 uM and did not inhibit activity by >80%, however they showed some activity at 1 uM (less than 80% and more than 20%))"
16,CCC(=O)N[C@@H](C(=O)N1CCN(C)CC1)[C@@H](C)c1ccc(NC(=O)[C@@H](NC(=O)CC2CCNCC2)C2CCCCC2)c(F)c1 [Compound 741],X2b (compounds were evaluated up to 1 uM and inhibited activity at 1 uM by less than 20%)
17,CCC(=O)N[C@@H](C(=O)N1CCN(C)CC1)[C@@H](C)c1ccc(NC(=O)[C@H](Cc2ccccc2Cl)NC(=O)c2ccnn2CC)c(F)c1 [Compound 742],"X2a (compounds were evaluated up to 1 uM and did not inhibit activity by >80%, however they showed some activity at 1 uM (less than 80% and more than 20%))"
18,CCn1nccc1C(=O)N[C@H](C(=O)Nc1ccc([C@H](C)[C@@H](NC(=O)c2ccn(C)n2)C(=O)N2CCN(C)CC2)cc1F)C1CCCCC1 [Compound 744],"X2a (compounds were evaluated up to 1 uM and did not inhibit activity by >80%, however they showed some activity at 1 uM (less than 80% and more than 20%))"
19,CCn1nccc1C(=O)N[C@H](C(=O)Nc1ccc([C@H](C)[C@@H](NC(=O)c2ccc(CN(C)C)o2)C(=O)N2CCN(C)CC2)cc1F)C1CCCCC1 [Compound 745],X2b (compounds were evaluated up to 1 uM and inhibited activity at 1 uM by less than 20%)
20,CCC(=O)N[C@H](Cc1ccc(NC(=O)[C@@H](NC(=O)c2ccnn2CC)C2CCCCC2)c(F)c1)C(=O)N1CCNCC1 [Compound 746],X2b (compounds were evaluated up to 1 uM and inhibited activity at 1 uM by less than 20%)
21,CCC(=O)N[C@@H](C(=O)N1CCN(C)CC1)[C@@H](C)c1ccc(NC(=O)[C@@H](NC(=O)c2ccnn2CC)C2CCOCC2)c(F)c1 [Compound 747],X2b (compounds were evaluated up to 1 uM and inhibited activity at 1 uM by less than 20%)
22,CCC(=O)N[C@H](Cc1ccc(NC(=O)[C@@H](NC(=O)c2ccnn2CC)C2CCCCC2)c(F)c1)C(=O)N1CCC(N(C)C)CC1 [Compound 748],"X2a (compounds were evaluated up to 1 uM and did not inhibit activity by >80%, however they showed some activity at 1 uM (less than 80% and more than 20%))"
23,CCC(=O)N[C@H](Cc1ccc(NC(=O)[C@@H](NC(=O)c2ccnn2CC)C2CCCCC2)c(F)c1)C(=O)NCCN(C)C [Compound 749],"X2a (compounds were evaluated up to 1 uM and did not inhibit activity by >80%, however they showed some activity at 1 uM (less than 80% and more than 20%))"
24,CCC(=O)N[C@H](Cc1ccc(NC(=O)[C@@H](NC(=O)c2ccnn2CC)C2CCCCC2)c(F)c1)C(=O)N1CC2(CN(C)C2)C1 [Compound 750],X2b (compounds were evaluated up to 1 uM and inhibited activity at 1 uM by less than 20%)
25,CCC(=O)N[C@H](Cc1ccc(NC(=O)[C@@H](NC(=O)c2ccnn2CC)C2CCCCC2)c(F)c1)C(=O)N1CC2(CCN(C)CC2)C1 [Compound 751],X2b (compounds were evaluated up to 1 uM and inhibited activity at 1 uM by less than 20%)
26,CCC(=O)N[C@H](Cc1ccc(NC(=O)[C@@H](NC(=O)c2ccnn2CC)C2CCCCC2)c(F)c1)C(=O)NCCO [Compound 752],X2b (compounds were evaluated up to 1 uM and inhibited activity at 1 uM by less than 20%)
27,CCC(=O)N[C@@H](C(=O)N1CCN(C)CC1)[C@@H](C)c1ccc(NC(=O)[C@@H](NC(=O)c2csc3cncnc23)C2CCCCC2)c(F)c1 [Compound 754],X2b (compounds were evaluated up to 1 uM and inhibited activity at 1 uM by less than 20%)
28,CCC(=O)N[C@H](C(=O)NC1CCOCC1)[C@@H](C)c1ccc(NC(=O)[C@@H](NC(=O)c2ccnn2CC)C2CCCCC2)c(F)c1 [Compound 757],X2b (compounds were evaluated up to 1 uM and inhibited activity at 1 uM by less than 20%)
29,CCC(=O)N[C@@H](C(=O)N1CCN(C)CC1)[C@@H](C)c1ccc(NC(=O)[C@@H](NC(=O)[C@@H]2CCCN2C)C2CCCCC2)c(F)c1 [Compound 758],X2b (compounds were evaluated up to 1 uM and inhibited activity at 1 uM by less than 20%)

# Same assay, conditions: HEK-Blue IL-17A reporter cell line, SEAP readout at A630, 20 hours incubation with IL-17A/A; top concentration 10 uM, 1 uM or 0.3 uM; read-out: IL-17A/A inhibition (pIC50) (converted)
row,Compound,IC50 [µM]
1,CCC(=O)N[C@H](Cc1ccc(NC(=O)[C@@H](NC(=O)c2ccnn2CC)C2CCCCC2)c(F)c1)C(=O)N1CCCN(C)CC1 [Compound 760],0.1 to 10
2,CCC(=O)N[C@H](Cc1ccc(NC(=O)[C@@H](NC(=O)c2cncn2CC)C2CCCCC2)c(F)c1)C(=O)N1CCN(C)CC1 [Compound 761],0.1 to 10
3,CCC(=O)N[C@H](Cc1ccc(NC(=O)[C@@H](NC(=O)c2ccnn2CC)C2CCCCC2)c(Cl)c1)C(=O)N1CCN(C)CC1 [Compound 763],0.1 to 10
4,CCC(=O)N[C@H](Cc1ccc(NC(=O)[C@@H](NC(=O)c2conc2CNC(C)=O)C2CCCCC2)c(F)c1)C(=O)N1CCN(C)CC1 [Compound 764],0.1 to 10
5,CCC(=O)N[C@H](Cc1ccc(NC(=O)[C@@H](NC(=O)c2cc(Cl)nn2C)C2CCCCC2)c(F)c1)C(=O)N1CCN(C)CC1 [Compound 765],0.1 to 10
6,CCC(=O)N[C@H](Cc1ccc(NC(=O)[C@@H](NC(=O)c2ccnn2CC)C2CCCCC2)c(C)c1)C(=O)N1CCN(C)CC1 [Compound 766],0.1 to 10
7,CCC(=O)N[C@@H](C(=O)N1CCN(C)CC1)[C@@H](C)c1ccc(NC(=O)[C@@H](NC(=O)c2ccc(CNC(=O)COCC(=O)O)s2)C2CCCCC2)c(F)c1 [Compound 767],0.1 to 10
8,CCC(=O)N[C@@H](C(=O)O)[C@@H](C)c1ccc(NC(=O)[C@@H](NC(=O)c2ccnn2CC)C2CCCCCC2)c(F)c1 [Compound 768],0.1 to 10
9,CCC(=O)N[C@@H](C(=O)N1CCN(C)CC1)[C@@H](C)c1ccc(NC(=O)[C@@H](NC(=O)Cc2ccc(CC(=O)O)cc2)C2CCCCC2)c(F)c1 [Compound 769],0.1 to 10
